Like-named read-outs stand apart in the source and are kept apart here.

One assay has as its target T1, ER-alpha (Homo sapiens, UniProt P03372).
T1 construct: expressed in transfected cells
T1 sequence (P03372 1-595): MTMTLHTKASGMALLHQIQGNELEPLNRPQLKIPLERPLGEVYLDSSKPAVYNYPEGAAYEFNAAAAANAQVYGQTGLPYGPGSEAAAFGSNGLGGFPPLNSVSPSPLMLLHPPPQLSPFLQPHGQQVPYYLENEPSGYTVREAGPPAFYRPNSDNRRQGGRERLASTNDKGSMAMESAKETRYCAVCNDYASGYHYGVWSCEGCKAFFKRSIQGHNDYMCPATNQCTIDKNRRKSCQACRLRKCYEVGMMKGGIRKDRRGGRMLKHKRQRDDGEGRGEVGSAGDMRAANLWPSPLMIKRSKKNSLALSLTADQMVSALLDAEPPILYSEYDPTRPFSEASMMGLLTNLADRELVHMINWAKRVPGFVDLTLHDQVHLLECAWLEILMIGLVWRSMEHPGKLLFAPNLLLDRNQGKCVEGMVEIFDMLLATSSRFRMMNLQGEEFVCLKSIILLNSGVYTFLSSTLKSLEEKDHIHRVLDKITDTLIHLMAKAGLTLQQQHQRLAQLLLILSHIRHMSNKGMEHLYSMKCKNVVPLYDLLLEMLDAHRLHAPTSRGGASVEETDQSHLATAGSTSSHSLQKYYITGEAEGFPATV
The assay is described as follows: U2-OS ER-alpha luciferase reporter cell line. In kind it is cell-based.

Assay [1] has as its target T2, progesterone receptor (PR) (Homo sapiens, UniProt P06401).
T2 construct: expressed in transfected cells; host or cells: human U2-OS cells, stably transfected with pSG5-hPR
T2 sequence (P06401 1-933): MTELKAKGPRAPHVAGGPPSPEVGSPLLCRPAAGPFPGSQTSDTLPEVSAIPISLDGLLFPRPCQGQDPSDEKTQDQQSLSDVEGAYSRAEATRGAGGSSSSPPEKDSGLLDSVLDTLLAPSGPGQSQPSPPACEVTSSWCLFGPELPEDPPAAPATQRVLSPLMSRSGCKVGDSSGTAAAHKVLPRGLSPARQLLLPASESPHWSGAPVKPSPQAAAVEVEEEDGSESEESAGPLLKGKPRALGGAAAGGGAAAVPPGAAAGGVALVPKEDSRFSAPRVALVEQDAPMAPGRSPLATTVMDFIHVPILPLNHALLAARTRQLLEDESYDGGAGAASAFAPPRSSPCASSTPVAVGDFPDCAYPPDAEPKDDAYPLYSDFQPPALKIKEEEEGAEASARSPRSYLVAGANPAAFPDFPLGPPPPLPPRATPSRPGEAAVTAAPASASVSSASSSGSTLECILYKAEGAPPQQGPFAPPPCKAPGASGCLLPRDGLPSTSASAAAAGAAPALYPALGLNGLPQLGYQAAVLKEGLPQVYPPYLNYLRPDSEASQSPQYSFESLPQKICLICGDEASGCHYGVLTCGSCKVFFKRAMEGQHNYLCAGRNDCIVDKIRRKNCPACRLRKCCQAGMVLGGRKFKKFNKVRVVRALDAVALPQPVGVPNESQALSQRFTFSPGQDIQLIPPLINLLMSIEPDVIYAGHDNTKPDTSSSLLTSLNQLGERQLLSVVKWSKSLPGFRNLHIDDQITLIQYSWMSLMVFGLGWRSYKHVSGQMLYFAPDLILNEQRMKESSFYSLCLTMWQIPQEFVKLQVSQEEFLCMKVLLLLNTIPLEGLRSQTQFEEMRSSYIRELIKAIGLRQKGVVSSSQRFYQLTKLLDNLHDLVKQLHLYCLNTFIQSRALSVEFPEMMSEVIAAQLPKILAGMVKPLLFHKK
Description: U2-OS PR cell line (pSG5-hPR, 3×HRE-TATA-Luc reporter). In kind it is cell-based. The text has this:
Reporter constructs were made using specific synthetic multimerized hormone responsive elements which were cloned upstream of the synthetic TATA box in the pGL3-TATA-Luc vector. Stable transfected cell lines were made, when necessary co-transfected with a specific receptor-containing expression plasmid pSG5.
The reporter construct comprises 3 tandem repeats of the hormone responsive element (HRE) oligonucleotide:
upstream of the minimal adenovirus E1B TATA promotor sequence ([…]) inserted in the multiple cloning site of the luciferase reporter construct pGL3 (as described in Legler et al., supra).
In order to determine the responsiveness of the U2-OS based steroid reporter cell lines, cells were plated in 96-wells plates and treated for 24 hours with hormone in the culture medium containing 5% charcoal-stripped serum.
The PR cell line was generated by stably transfecting the human U2-OS cell line with pSG5-hPR and the 3×HRE-TATA-Luc reporter constructs.

Compound `C[C@]12CCC(=O)C=C1CC[C@@H]1[C@@H]2CC[C@]2(C)C(=O)CC[C@@H]12` [androstenedione] registered an EC50 on ER-alpha of more than 10 µM.

As for `C[C@]12CC[C@H]3[C@@H](CCC4=CC(=O)CC[C@@H]43)[C@@H]1CC[C@@H]2O` [Nandrolone], the figures for the EC50 (at ER-alpha; in assay [1]) were 0.0398 µM and 0.00501 µM, respectively. `C[C@@H]1C[C@H]2[C@@H]3CCC4=CC(=O)C=C[C@]4(C)[C@@]3(F)[C@@H](O)C[C@]2(C)[C@@]1(O)C(=O)CO` [Dexamethasone]: the EC50 in assay [1] (logEC50, U2-OS reporter cell line, 24 hours with hormone, 5% charcoal-stripped serum, read-out: potency (logEC50) PR (converted)) is more than 10 µM.

`C[C@]12CC[C@H]3[C@@H](CCC4=CC(=O)CC[C@@]43C)[C@@H]1CC[C@@H]2O` [testosterone] gave an EC50 in assay [1] of 7.94 µM. `C[C@]1(O)CC[C@H]2[C@@H]3CCC4=CC(=O)CCC4=C3C=C[C@@]21C` [R1881] had an EC50 on ER-alpha of more than 10 µM.

In the case of `C[C@]12CC[C@H](O)CC1=CC[C@@H]1[C@@H]2CC[C@]2(C)C(=O)CC[C@@H]12` [DHEA], the “potency (logEC50) PR” value in assay [1] (logEC50, U2-OS reporter cell line, 24 hours with hormone, 5% charcoal-stripped serum) is listed as more than −5.0.

Turning to `C[C@]12CCC(=O)C[C@@H]1CC[C@@H]1[C@@H]2CC[C@]2(C)[C@@H](O)CC[C@@H]12` [dihydro-testosterone, 5α-dihydro-testosterone], the EC50 in assay [1] is 3.98 µM.

The values are drawn from patent US20070141568A1, “Method for determining the presence of one or more ligands in a sample” (BioDetection Systems B.V., priority 2002, published 2007).
